Measurements: ChEMBL document CHEMBL1152080, “Linear sesterterpenes from the Caribbean sponge Thorecta horridus with inflammatory activity” (1991)

Key:
Assay type in all cases: functional
Rattus norvegicus [1] = species on record: Rattus norvegicus; assay: Percent release of histamine from rat peritoneal cells was determined at 10 ug/mL concentration of compound
Rattus norvegicus [2] = assay: Compound was evaluated in vivo for its inflammatory activity in rat paw pretreated with mepyramine (2.5 mg/kg) and methysergide (3 mg/Kg)after administration of compound (1 mg) and percent edema was reported
Rattus norvegicus [3] = species on record: Rattus norvegicus; assay: Percent release of histamine from rat peritoneal cells was determined at 1 ug/mL concentration of compound
Rattus norvegicus [4] = species on record: Rattus norvegicus; assay: Percent release of histamine from rat peritoneal cells was determined at 0.1 ug/mL concentration of compound

Question: With `CC(C)=CCC/C(C)=C/CC/C(C)=C/CC/C(C)=C/CCC1=CC(=O)OC1` as the molecule, how does the Histamine release (Rattus norvegicus [1]) read?
Answer: 30%

Question: And the Supression (Rattus norvegicus [2])?
Answer: 65%

Question: And the Histamine release (Rattus norvegicus [3])?
Answer: 11%

Question: And the Histamine release (Rattus norvegicus [4])?
Answer: 4%
